Columns and labels:
BRD4 = BRD4 (Homo sapiens, UniProt O60885); assay: HTRF binding assay (cell-free, protein and peptide)
BRD2 = molecular target: T1, BRD2 (Homo sapiens, UniProt P25440); assay: as above
T1 construct: BRD2(1,2)
T1 sequence (P25440 whole entry): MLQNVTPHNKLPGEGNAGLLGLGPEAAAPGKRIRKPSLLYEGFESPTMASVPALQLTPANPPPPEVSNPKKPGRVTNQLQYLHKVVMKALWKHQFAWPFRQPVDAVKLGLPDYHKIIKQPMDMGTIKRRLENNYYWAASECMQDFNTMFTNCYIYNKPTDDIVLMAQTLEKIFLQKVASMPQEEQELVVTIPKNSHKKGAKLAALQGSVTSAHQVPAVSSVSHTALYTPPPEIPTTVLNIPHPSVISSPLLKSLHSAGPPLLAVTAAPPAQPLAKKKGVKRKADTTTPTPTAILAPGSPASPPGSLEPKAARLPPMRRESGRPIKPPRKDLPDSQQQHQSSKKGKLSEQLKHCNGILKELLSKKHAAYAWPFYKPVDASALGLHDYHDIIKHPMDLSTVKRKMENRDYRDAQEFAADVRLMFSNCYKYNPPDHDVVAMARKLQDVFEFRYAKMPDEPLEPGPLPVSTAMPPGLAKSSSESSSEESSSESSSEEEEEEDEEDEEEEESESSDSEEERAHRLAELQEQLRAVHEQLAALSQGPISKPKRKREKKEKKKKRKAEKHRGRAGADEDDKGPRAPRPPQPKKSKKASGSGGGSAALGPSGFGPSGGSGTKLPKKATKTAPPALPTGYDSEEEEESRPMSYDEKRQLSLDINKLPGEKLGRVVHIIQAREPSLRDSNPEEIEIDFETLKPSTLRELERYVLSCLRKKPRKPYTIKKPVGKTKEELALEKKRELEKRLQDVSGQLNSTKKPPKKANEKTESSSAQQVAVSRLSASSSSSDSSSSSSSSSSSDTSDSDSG

IC50 (BRD4): 2.75 nM
IC50 (BRD2): 1.17 nM
Structure (SMILES): Cc1nnn(C)c1-c1cnc2c3ccc(C(C)(C)O)cc3n([C@H](c3ccccc3)C3CCOCC3)c2c1 [BMS-986158]
